Experimental data reported in PMC3574224, “Na^+ Regulation in the Malaria Parasite Plasmodiumfalciparum Involves the Cation ATPase PfATP4 and Is a Target of the Spiroindolone Antimalarials” (Cell Host & Microbe, 2013).

What was measured:
[1] = tested on: P. falciparum 3D7 trophozoites; assay: microbe, parasite or virus in culture; assay type: cell-based, Plasmodium falciparum; details: for Rate of increase of [Na^+]i at maximally effective concentrations: maximally effective concentration; for IC50: Plasmodium falciparum, concentration causing [Na^+]i to increase from resting value at half the maximal rate, from fitted curves, read-out: IC50 for disruption of Na^+ regulation
Procedure: P. falciparum strains 3D7, Dd2, NITD609-R^Dd2 clone #2, Dd2^attB, and Dd2^attB CAM I398F/P990R were cultured under shaking conditions as described elsewhere ([Allen and Kirk, 2010]). Cultures were synchronized 24 hr before experimentation using 5% w/v sorbitol ([Lambros and Vanderberg, 1979]). All experiments were conducted on mature trophozoite-stage parasites (36–40 hr postinvasion) functionally isolated from their host erythrocytes by permeabilization of the erythrocyte and parasitophorous vacuole membranes by brief exposure to saponin (0.05% w/v) as described previously ([Spillman et al., 2008]).
(§1) The [Na^+]i of saponin-isolated parasites was measured at 37°C using the Na^+-sensitive dye SBFI (Molecular Probes, Invitrogen) in conjunction with a PerkinElmer LS 50B Fluorescence Spectrometer fitted with a Dual Excitation Fast Filter. Saponin-isolated parasites were loaded with SBFI by suspension (at 1.40–1.80 × 10^8 cells/mL) for 20 min at 37°C in bicarbonate-free RPMI1640 supplemented with 20 mM D-glucose, 0.2 mM hypoxanthine, 25 mM HEPES, and 25 mg/L gentamycin sulfate (pH 7.10), to which SBFI-acetoxymethyl ester (5.5 μM) and Pluronic F-127 (0.01% w/v) were added. The dye-loaded cells were washed twice (12,000 × g, 0.5 min) in bicarbonate-free RPMI then incubated for a further 20 min at 37°C to allow for complete de-esterification of the dye before being resuspended at a final cell concentration of 1.5–2.5 × 10^7 cells/mL in standard saline. The dye-loaded cells were excited at 340 nm and 380 nm with fluorescence recorded at 490 nm. Calibration of the relationship between the 340/380 nm fluorescence ratio and [Na^+]i (see Figures S1A–S1C) was carried out as described previously ([Diarra et al., 2001]; [Harootunian et al., 1989]).
The initial Na^+ influx rate (at t = 0) is a × Δ[Na^+]i^max.
(§2) Dose-response curves were obtained using the expression y = y^min + y^max/(1 + [C/IC50]^b), where y is the parameter being measured (parasite proliferation, Na^+ influx, or ATPase activity), y^min is the minimum value of y, y^max is the maximum value of y, C is the concentration of the moiety that was varied in the experiment, IC50 is the concentration at which y was reduced to 50% of y^max, and b is a fitted constant.

[2] = tested on: P. falciparum trophozoites; assay: Cytosolic [Ca^2+]i in fura-2-loaded saponin-isolated parasites; assay type: cell-based, Plasmodium falciparum; details: 2 μM; medium containing 1 μM Ca^2+
Procedure: [Ca^2+]i was measured with the Ca^2+-sensitive indicator fura-2 (Molecular Probes, Invitrogen) using a loading protocol identical to that described for SBFI. Calibration was performed as described previously ([Alleva and Kirk, 2001]).

[3] = tested on: P. falciparum trophozoites; assay: Recovery of [Na^+]i from an imposed intracellular Na^+ load (K^+ removal and restoration); assay type: cell-based, Plasmodium falciparum; details: added with 10 mM KCl
Procedure: The mechanism responsible for the increase in [Na^+]i seen upon removal of extracellular K^+ was not investigated further here. However, the phenomenon does provide a useful means of imposing an intracellular Na^+ load on the parasite and of testing the effect of inhibitors on the net efflux of Na^+ from the Na^+-loaded parasite.
as §1, with “1989]). Several inhibitors used in this study caused inner filter effects ([Gu and Kenny, 2009]; [Srinivas and Mutharasan, 1987]); in these cases calibration curves were generated with the inhibitors present.” for “1989]).”
The rate of efflux of Na^+ from the cells, following an imposed intracellular Na^+ load, was estimated by fitting the following function to the [Na^+]i traces: [Na^+]i = Δ[Na^+]i^max × e^-at + [Na^+]i^final, where Δ[Na^+]i^max is the increase in [Na^+]i above the normal resting value (following the imposition of an intracellular Na^+-load), t is the time after the commencement of efflux (on addition of extracellular K^+), a is a fitted constant, and [Na^+]i^final is the final value of [Na^+]i. The initial Na^+ efflux rate (at t = 0) is a × Δ[Na^+]i^max, and the half-time to complete recovery (t1/2) is ln(0.5)/-a.

P. falciparum parasites = assay: Parasite proliferation, [^3H]hypoxanthine incorporation assay, 48 hr; assay type: cell-based; details: Plasmodium falciparum; mean ± SEM, number of independent experiments in parentheses; read-out: IC50 for inhibition of parasite proliferation
Procedure: Parasite growth assays were performed in 96-well plates over 48 hr (commencing at the ring stage) using a standard [^3H]hypoxanthine incorporation assay ([Desjardins et al., 1979]).
as §2

[4] = tested on: P. falciparum trophozoites; assay: Cytosolic pH (pHi) in BCECF-loaded saponin-isolated parasites; assay type: cell-based, Plasmodium falciparum
Procedure: pHi of saponin-isolated parasites was measured using the pH-sensitive indicator BCECF (Molecular Probes, Invitrogen) as described previously ([Saliba and Kirk, 1999]). […] Critical experiments performed using SBFI-loaded parasites were repeated with parasites loaded with BCECF.

[5] = 10 μM, on the timescale of the experiments

Compound: CC(=O)C1=C(O)[C@@H]2[C@H]3c4c[nH]c5cccc(c45)C[C@H]3C(C)(C)N2C1=O [CPA, cyclopiazonic acid, reference compound]
- Effect on [Na^+]i ([1]; 40 μM): caused [Na^+]i to increase
- Effect on [Ca^2+]i [2]: transient increase in [Ca^2+]i

Compound: CCN(c1nc(N)c(C(=O)NC(=N)N)nc1Cl)C(C)C [EIPA, ethylisopropylamiloride, reference compound]
- Effect on resting [Na^+]i ([1]; 20 μM): Neither the Na^+/H^+ exchanger inhibitor ethylisopropylamiloride (EIPA; 20 μM) nor the Na^+/K^+-ATPase inhibitor ouabain (2 mM) had a significant effect
- Effect on recovery of [Na^+]i after Na^+ load ([3]; 20 μM): unaffected

Compound: NS(=O)(=O)c1cc(C(=O)O)c(NCc2ccco2)cc1Cl [Furosemide, reference compound]
- Effect on recovery of [Na^+]i after Na^+ load ([3]; 100 μM): slowed

Compound: C[C@@H]1CCc2c([nH]c3ccccc23)[C@]2(N1)C(=O)Nc1ccc(Br)cc12 [NITD138]
- IC50 (P. falciparum parasites): 2300 ± 200 nM
- Effect on resting [Na^+]i ([1]; 50 nM, 3D7, standard saline): little effect
- Rate of increase of [Na^+]i at maximally effective concentrations [1]: did not reach the maximum value at the highest concentration tested

Compound: C[C@H]1CCc2c([nH]c3ccccc23)[C@@]2(N1)C(=O)Nc1ccc(Br)cc12 [NITD139]
- IC50 (P. falciparum parasites): 4 ± 0.9 nM
- Effect on resting [Na^+]i ([1]; 50 nM, 3D7, standard saline): immediate rapid increase in [Na^+]i
- IC50 ([1]; 3D7, standard saline): 16.6 ± 5.7 nM
- Rate of increase of [Na^+]i at maximally effective concentrations [1]: 0.098 ± 0.007 mM/s

Compound: C[C@@H]1Cc2c([nH]c3cc(F)c(F)cc23)[C@]2(N1)C(=O)Nc1ccc(Cl)cc12 [NITD247]
- IC50 (P. falciparum parasites): 41.6 ± 5.8 nM
- Effect on resting [Na^+]i ([1]; 50 nM, 3D7, standard saline): little effect
- IC50 ([1]; 3D7, standard saline): 407 ± 117 nM
- Rate of increase of [Na^+]i at maximally effective concentrations [1]: 0.125 ± 0.013 mM/s

Compound: [Na+].[Na+].[Na+].[O]=[V]([O-])([O-])[O-] [Sodium orthovanadate, reference compound]
- Effect on [Na^+]i ([1]; 100 μM): prolonged time-dependent increase
- Rate of increase of [Na^+]i ([1]; 500 μM, n = 4): 0.13 ± 0.03 mM/s
- Cytosolic pH (pHi) after addition ([4]; 100 μM, Na^+-dependent, increase from 7.28 ± 0.03, n = 6, p = 0.024): 7.36 ± 0.03

Compound: C[C@@H]1CC[C@H]2[C@@H](C)C(=O)O[C@@H]3O[C@@]4(C)CC[C@@H]1[C@]32OO4 [artemisinin, reference compound]
- Effect on [Na^+]i [1, 5]: no effect

Compound: CCN(CC)CCCC(C)Nc1ccnc2cc(Cl)ccc12 (stereo not shown) [chloroquine, reference compound]
- Effect on [Na^+]i [1, 5]: no effect

Compound: C/C=C/[C@H]1O[C@@](O)([C@@H](C)[C@H](O)[C@H](C)[C@H]2OC(=O)/C(OC)=C/C(C)=C/[C@@H](C)[C@@H](O)[C@@H](CC)[C@@H](O)[C@H](C)C/C(C)=C/C=C/[C@@H]2OC)C[C@@H](O[C@H]2C[C@@H](O)[C@H](OC(N)=O)[C@@H](C)O2)[C@@H]1C [concanamycin A, reference compound]
- Effect on pHi of parasites after NITD246- or orthovanadate-induced alkalinisation ([4]; 75 nM, pHi decreasing to below its normal resting value): immediate reversal of the alkalinisation

Compound: C[C@@H]1O[C@@H](O[C@H]2C[C@@H](O)[C@]3(CO)[C@H]4[C@H](O)C[C@]5(C)[C@@H](C6=CC(=O)OC6)CC[C@]5(O)[C@@H]4CC[C@]3(O)C2)[C@H](O)[C@H](O)[C@H]1O [ouabain, reference compound]
- Effect on resting [Na^+]i ([1]; 2 mM): nor the Na^+/K^+-ATPase inhibitor ouabain (2 mM) had a significant effect

Compound: C/C=C(/C)C(=O)O[C@H]1C(C)=C2[C@H]([C@@H]1OC(=O)CCCCCCC)[C@@](C)(OC(C)=O)C[C@H](OC(=O)CCC)[C@@]1(O)[C@H]2OC(=O)[C@@]1(C)O [thapsigargin, reference compound]
- Effect on [Na^+]i ([1]; 2 μM): little effect

Compound: Gramicidin [reference compound]
- Effect on [Na^+]i ([1]; 5 μM, [Na^+]o 125 mM): rapid increase in [Na^+]i
